For test [1], the system named is HF patients. The settings on record: cited from earlier work; for mortality: post hoc analysis of DIG trial.
Test [2] has as its system Guinea pig hearts. As to the kind of experiment: Hemodynamics of isolated perfused hearts (Langendorff). The note with it: 25-nM isoproterenol in ouabain-treated hearts, absence (isoproterenol) or presence of CGP-37157. The text has this: (§1) Guinea pig hearts were quickly excised under anesthesia and mounted on a modified Langendorff apparatus attached to a Powerlab system (AD Instruments, Colorado Springs, Colo.). Hearts were perfused with gassed (95/5% O2/CO2) control buffer containing: 118-mM NaCl, 24-mM NaHCO3, 1.2-mM KH2PO4, 4.75-mM KCl, 1.2-mM MgSO4, 2.0-mM CaCl2, and 10-mM glucose. A buffer-filled latex balloon (Harvard apparatus) was inserted through the mitral valve into the left ventricle. Hearts were suspended in a buffer-filled heating chamber maintained at 37° C. and two electrodes were placed into the bath for volume-conducted electrocardiogram recordings. Heart rate, left ventricular developed pressure (LVDP), maximal rates of contraction and relaxation (±dP/dt), oxygen consumption, and electrocardiograms (ECG) were recorded on a computer. After a ten-minute equilibration period, hearts were subjected to the following protocol: ten-minute baseline recording while the heart was perfused with control buffer, ten-minute recording while 0.25-μM ouabain with or without 1 μM CGP-37157, and sixty-minute recording while hearts were stimulated with 25-nM isoproterenol. The measurements of hemodynamic parameters were determined by taking the average during the last two minutes before ouabain treatment (baseline) and for two minutes during the maximal effect on LVDP of either ouabain or isoproterenol.
In Table 1A-1C, hemodynamics of isolated perfused hearts were recorded at baseline, with ouabain treatment (1 μM), and with ouabain plus isoproterenol (100 nM) stimulation with or without CGP-37157 (1 μM). HR, heart rate; LVDP, left ventricular developed pressure; Oua: ouabain; CGP: CGP-37157; VF: ventricular fibrillation. *p<0.05 compared to group without CGP; † p<0.05 compared to baseline.

The subject of test [3] is Guinea pig hearts. As to the kind of experiment: Oxygen consumption in isolated perfused hearts. The note with it: ouabain followed by isoproterenol, without (isoproterenol) or with CGP-37157.
Source text: as §1
Cardiac O2 concentration was measured with an O2 probe attached to a PowerLab system (AD Instruments). The probe was calibrated with 95% O2-saturated buffer as 100% and 100% N2-saturated buffer as 0%. The molar concentration of O2 consumption was calculated from percentage concentration with the following equation: VO2(μmol/min/g dwt)=CF×(0.02373/22.414)×((760−p)/760)×(ΔO2%/100)/dwt
where CF is coronary flow (mL/min); 0.02373 is the absorption coefficient of O2 in H2O at 37° C.; 22.414 is the volume (L) of 1 mol gas at STP; 760 is 1 atm in mm Hg; p equals 47.067, which is the vapor pressure of H2O at 37° C.; ΔO2% is the difference in O2 percentage concentration between inflow buffer collected from cannula before heart was mounted and outflow buffer collected from pulmonary artery; dwt is dry heart weight.

Like-named read-outs stand apart in the source and are kept apart here.

As for `C[C@H]1O[C@@H](OC2[C@@H](O)C[C@H](OC3[C@@H](O)CC(O[C@H]4CC[C@@]5(C)[C@H](CC[C@@H]6[C@@H]5C[C@@H](O)[C@]5(C)[C@@H](C7=CC(=O)OC7)CC[C@]65O)C4)O[C@@H]3C)O[C@@H]2C)C[C@H](O)C1O` (stereo in doubt) [digoxin, 4-[(3S,5R,8R,9S,10S,12R,13S,14S)-3-[(2S,4S,5R,6R)-5-[(2S,4S,5R,6R)-5-[(2S,4S,5R,6R)-4,5-dihydroxy-6-methyl-oxan-2-yl]oxy-4-hydroxy-6-methyl-oxan-2-yl]oxy-4-hydroxy-6-methyl-oxan-2-yl]oxy-12,14-dihydroxy-10,13-dimethyl-1,2,3,4,5,6,7,8,9,11,12,15,16,17-tetradecahydrocyclopenta[a]phenanthren-17-yl]-5H-furan-2-one], the overall mortality result in test [1] (DIG trial, HF patients) is listed as “did not affect overall mortality”. Further, the mortality entry is reported as “no effect on mortality” in test [1] (SDC ≧1.0 ng/mL) and “reduced mortality of all HF patients” in test [1] (serum digoxin concentration (SDC) 0.5-0.9 ng/mL).
As for `CC(C)NCC(O)c1ccc(O)c(O)c1` (centres unmarked) [isoproterenol, 4-[1-hydroxy-2-(isopropylamino)ethyl]benzene-1,2-diol, reference compound], in test [2], the “increase of +dP/dt compared to the level with ouabain treatment” value stood at 57%, the “increase of LVDP compared to the level with ouabain treatment” value is “not increased further”, the “increase of heart rate (HR) compared to the level with ouabain treatment” value was 28% and the “increase of −dP/dt compared to the level with ouabain treatment” value was determined as 52%. In addition, the “increase of whole-heart oxygen consumption (VO2) compared to baseline” value in test [3] is listed as 25%.
